Data reported in ChEMBL document CHEMBL5356949, “Development of novel thiazolidine-2,4-dione derivatives as PPAR-γ agonists through design, synthesis, computational docking, MD simulation, and comprehensive in vitro and in vivo evaluation” (RSC Med Chem, 2023).
Activity calls are given as the source filed them. The calls are words filed in the database; no cut-off is given here.

How the values were obtained:
C2C12 [1] = experiment: Upregulation of PPAR-gamma expression in mouse C2C12 cells at 1 uM by ELISA analysis; assay type: functional, cell-based
Rattus norvegicus [2] = experiment: Hypolipidemic activity against dexamethasone-induced Wistar rat model assessed as decrease in serum TG level at 17.5 mg/kg, sc administered once daily for 11 days and fasted for 12 hrs at end of the experimental period; assay type: functional, organism-based; conditions: time 11.5 day
C2C12 [3] = experiment: Cytotoxicity against mouse C2C12 cells assessed as reduction in cell viability at 100 to 200 uM incubated for 24 hrs by MTT assay; assay type: toxicity, cell-based; conditions: c2c12, 24 h, dose 100-200 µM
C2C12 [4] = experiment: Antidiabetic activity in mouse C2C12 cells assessed as increase in glucose uptake incubated for 30 mins; assay type: functional, cell-based
Rattus norvegicus [5] = experiment: Antidiabetic activity against dexamethasone-induced Wistar rat model assessed as decrease in serum VLDL level at 17.5 mg/kg, sc administered once daily for 11 days and fasted for 12 hrs at end of the experimental period; assay type: functional, organism-based; conditions: time 11.5 day
Rattus norvegicus [6] = experiment: Hypolipidemic activity against dexamethasone-induced Wistar rat model assessed as decrease in serum LDL-c level at 17.5 mg/kg, sc administered once daily for 11 days and fasted for 12 hrs at end of the experimental period; assay type: functional, organism-based; conditions: time 11.5 day
Rattus norvegicus [7] = experiment: Effect on serum ALT level in dexamethasone-induced Wistar rat model at 17.5 mg/kg, sc administered once daily for 11 days and fasted for 12 hrs at end of the experimental period by biochemical analysis; assay type: functional, organism-based; conditions: time 11.5 day
Rattus norvegicus [8] = experiment: Hypolipidemic activity against dexamethasone-induced Wistar rat model assessed as decrease in serum triglyceride level at 17.5 mg/kg, sc administered once daily for 11 days and fasted for 12 hrs at end of the experimental period; assay type: functional, organism-based; conditions: time 11.5 day
Rattus norvegicus [9] = experiment: Effect on serum AST level in dexamethasone-induced Wistar rat model at 17.5 mg/kg, sc administered once daily for 11 days and fasted for 12 hrs at end of the experimental period by biochemical analysis; assay type: functional, organism-based; conditions: time 11.5 day
Rattus norvegicus [10] = experiment: Antidiabetic activity against dexamethasone-induced Wistar rat model assessed as decrease in serum glucose level at 17.5 mg/kg, sc administered once daily for 11 days and fasted for 12 hrs at end of the experimental period; assay type: functional, organism-based; conditions: time 11.5 day
C2C12 [11] = experiment: Upregulation of PPAR-gamma expression in mouse C2C12 cells by ELISA analysis; assay type: functional, cell-based; conditions: dose 6.25-100 µM
Rattus norvegicus [12] = experiment: Antidiabetic activity against dexamethasone-induced Wistar rat diabetic model assessed as restoration of histopathological changes at 17.5 mg/kg, sc administered once daily for 11 days and fasted for 12 hrs at end of the experimental period by hematoxylin and eosin staining based microscopic analysis; assay type: functional, organism-based; conditions: time 11.5 day
Rattus norvegicus [13] = experiment: Hypolipidemic activity against dexamethasone-induced Wistar rat model assessed as decrease in serum HDL-c level at 17.5 mg/kg, sc administered once daily for 11 days and fasted for 12 hrs at end of the experimental period; assay type: functional, organism-based; conditions: time 11.5 day
Rattus norvegicus [14] = experiment: Antidiabetic activity against dexamethasone-induced sc dosed Wistar rat model assessed as decrease in serum glucose level administered once daily for 11 days and fasted for 12 hrs at end of the experimental period; assay type: functional, organism-based; conditions: time 11.5 day
Rattus norvegicus [15] = experiment: Antidiabetic activity against dexamethasone-induced sc dosed Wistar rat model assessed as decrease in serum VLDL level administered once daily for 11 days and fasted for 12 hrs at end of the experimental period; assay type: functional, organism-based; conditions: time 11.5 day
Rattus norvegicus [16] = experiment: Hypolipidemic activity against dexamethasone-induced sc dosed Wistar rat model assessed as decrease in serum TG level administered once daily for 11 days and fasted for 12 hrs at end of the experimental period; assay type: functional, organism-based; conditions: time 11.5 day
Rattus norvegicus [17] = experiment: Effect on serum ALT level in dexamethasone-induced sc dosed Wistar rat model administered once daily for 11 days and fasted for 12 hrs at end of the experimental period by biochemical analysis; assay type: functional, organism-based; conditions: time 11.5 day
Rattus norvegicus [18] = experiment: Effect on serum AST level in dexamethasone-induced sc dosed Wistar rat model administered once daily for 11 days and fasted for 12 hrs at end of the experimental period by biochemical analysis; assay type: functional, organism-based; conditions: time 11.5 day
Rattus norvegicus [19] = experiment: Hypolipidemic activity against dexamethasone-induced sc dosed Wistar rat model assessed as decrease in serum triglyceride level administered once daily for 11 days and fasted for 12 hrs at end of the experimental period; assay type: functional, organism-based; conditions: time 11.5 day
Rattus norvegicus [20] = experiment: Hypolipidemic activity against dexamethasone-induced sc dosed Wistar rat model assessed as decrease in serum LDL-c level administered once daily for 11 days and fasted for 12 hrs at end of the experimental period; assay type: functional, organism-based; conditions: time 11.0 day
Rattus norvegicus [21] = experiment: Hypolipidemic activity against dexamethasone-induced sc dosed Wistar rat model assessed as decrease in serum HDL-c level administered once daily for 11 days and fasted for 12 hrs at end of the experimental period; assay type: functional, organism-based; conditions: time 11.5 day
Rattus norvegicus [22] = experiment: Antidiabetic activity against dexamethasone-induced sc dosed Wistar rat diabetic model assessed as restoration of histopathological changes administered once daily for 11 days and fasted for 12 hrs at end of the experimental period by hematoxylin and eosin staining based microscopic analysis; assay type: functional, organism-based; conditions: time 11.5 day

Row | Compound | Activity (Rattus norvegicus [2]) | Activity (C2C12 [3]) | Activity (C2C12 [4]) | Activity (Rattus norvegicus [5]) | Activity (Rattus norvegicus [6]) | Activity (Rattus norvegicus [7]) | Activity (Rattus norvegicus [8]) | Activity (Rattus norvegicus [9]) | Activity (Rattus norvegicus [10]) | Activity (C2C12 [11]) | Activity (Rattus norvegicus [12]) | Activity (Rattus norvegicus [13]) | also measured
1 | CCc1ccc(CCOc2ccc(CC3SC(=O)NC3=O)cc2)nc1 (stereo unspecified) |  |  |  |  |  |  |  |  |  |  |  |  | Activity (C2C12 [1]): Active
2 | O=C(CN1C(=O)S/C(=C\c2cccs2)C1=O)Nc1cc(Cl)c(Cl)cc1Cl | Active | Non-Toxic | Active | Active | Active | Active | Active | Active | Active | Dose-Dependent Effect | Active | Active | 
3 | Cc1c(Cl)cccc1NC(=O)CN1C(=O)S/C(=C\c2cccs2)C1=O |  | Non-Toxic | Active |  |  |  |  |  |  |  |  |  | Activity (Rattus norvegicus [14]): Active; Activity (Rattus norvegicus [15]): Active; Activity (Rattus norvegicus [16]): Active; Activity (Rattus norvegicus [17]): Active; Activity (Rattus norvegicus [18]): Active; Activity (Rattus norvegicus [19]): Active; Activity (Rattus norvegicus [20]): Active; Activity (Rattus norvegicus [21]): Active; Activity (Rattus norvegicus [22]): Active
4 | O=C(CN1C(=O)S/C(=C\c2cccs2)C1=O)Nc1cccc(C(F)(F)F)c1 | Active | Non-Toxic | Active | Active | Active | Active | Active | Active | Active | Dose-Dependent Effect | Active | Active | 
